This is an account of results in patent US8507520B2, “Polysubstituted 2-aryl-6-phenylimidazo[1,2-A]pyridine derivatives, and preparation and therapeutic use thereof” (Sanofi, priority 2008, dated 2013).

One data set deals with T1, mouse Nurr1 receptor (Mus musculus, UniProt Q06219).
T1 construct: a cell line (N2A) endogenously expressing the mouse Nurr1 receptor; host or cells: Neuro-2A (N2A) mouse neuroblastoma cells stably transfected with 8NBRE-luciferase
Briefly: In vitro activity on N2A cells (NBRE-luciferase reporter). Format: cell-based. The note with it: N2A-8NBRE cells, products incubated 24 hours. The method, then: Evaluation of the In Vitro Activity on N2A Cells
• The activity of the compounds according to the invention was evaluated on a cell line (N2A) endogenously expressing the mouse Nurr1 receptor and stabily transfected with the NOT binding response element (NBRE) coupled to the luciferase reporter gene. The EC50 values are between 0.01 and 10 μM. The tests were carried out according to the procedure described below. • The Neuro-2A cell line comes from a standard commercial source (ATCC). The Neuro-2A clone was obtained from a spontaneous tumour originating from a mouse A albino strain by R. J. Klebe et al. This Neuro-2A line is subsequently stabily transfected with 8NBRE-luciferase. The N2A-8NBRE cells are cultured to confluence in 75 cm^2 culture flasks containing DMEM supplemented with 10% of foetal calf serum, 4.5 g/l of glucose and 0.4 mg/ml of geneticin. After one week of culture, the cells are recovered with 0.25% trypsin for 30 seconds and then resuspended in DMEM without phenol red, containing 4.5 g/l of glucose, 10% of Hyclone defatted serum, and deposited in white, transparent-bottom, 96-well plates. The cells are deposited at a rate of 60 000 per well in 75 μl for 24 hours before the addition of the products. The products were applied in 25 μl and incubated for a further 24 hours. On the day of measurement, an equivalent volume (100 μl) of Steadylite is added to each well, followed by a waiting period of 30 minutes in order to obtain complete lysis of the cells and maximum production of the signal. The plates are then measured in a microplate luminescence counter after having been sealed with an adhesive film. The products are prepared in the form of a stock solution at 10^−2 M, and then diluted in 100% of DMSO. Each product concentration is diluted beforehand in culture medium before incubation with the cells thus containing a final concentration of 0.625% of DMSO. […] It therefore appears that the compounds according to the invention have a NOT-modulating effect.

T1 sequence (Q06219 whole entry): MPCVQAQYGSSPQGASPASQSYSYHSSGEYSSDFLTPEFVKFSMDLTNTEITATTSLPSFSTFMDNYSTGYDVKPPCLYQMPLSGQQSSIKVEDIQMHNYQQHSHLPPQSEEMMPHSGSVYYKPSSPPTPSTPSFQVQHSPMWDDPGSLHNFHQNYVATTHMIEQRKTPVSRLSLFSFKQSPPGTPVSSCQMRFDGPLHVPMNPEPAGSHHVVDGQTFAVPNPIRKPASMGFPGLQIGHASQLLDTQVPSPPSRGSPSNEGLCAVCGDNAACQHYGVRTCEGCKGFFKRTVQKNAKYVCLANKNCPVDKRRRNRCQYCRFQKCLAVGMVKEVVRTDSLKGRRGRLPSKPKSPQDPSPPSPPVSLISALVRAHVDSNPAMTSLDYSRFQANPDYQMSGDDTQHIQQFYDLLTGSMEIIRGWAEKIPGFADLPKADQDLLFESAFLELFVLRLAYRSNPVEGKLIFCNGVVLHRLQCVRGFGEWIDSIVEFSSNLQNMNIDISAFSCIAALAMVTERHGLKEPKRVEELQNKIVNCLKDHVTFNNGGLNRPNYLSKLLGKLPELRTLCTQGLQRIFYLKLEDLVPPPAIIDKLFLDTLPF

The compound `Cc1cc(-c2cccc(CO)c2)cn2cc(-c3ccc(Cl)cc3)nc12` [Compound 1, {3-[2-(4-Chlorophenyl)-8-methylimidazo[1,2-α]pyridin-6-yl]phenyl}methanol] yielded a melting point of 174 to 177 °C. The response on mouse Nurr1 receptor was half-maximal at 5 nM (EC50).

`Cc1c(-c2ccccc2)nc2ccc(-c3cccc(CO)c3)cn12` [Compound 3, [3-(3-Methyl-2-phenylimidazo[1,2-α]pyridin-6-yl)phenyl]methanol]: a half-maximal response at mouse Nurr1 receptor (EC50) required 0.5 nM.

`Cc1cc(-c2ccc(CO)cc2)cn2cc(-c3ccc4ccccc4c3)nc12` [Compound 10, [4-(8-methyl-2-naphthyl-2-ylimidazo[1,2-α]pyridin-6-yl)phenyl]methanol] showed a 50% effective concentration (EC50) at mouse Nurr1 receptor of 68 nM. On to `COc1ccc(-c2nc3ccc(-c4cccc(C(C)(C)O)c4)cn3c2C)cc1` [Compound 15, 2-{3-[2-(4-methoxyphenyl)-3-methylimidazo[1,2-α]pyridin-6-yl]phenyl}propan-2-ol], for which the EC50 at mouse Nurr1 receptor turned out to be 161 nM.

In turn, `Cc1c(-c2cccc(Cl)c2)nc2ccc(-c3ccc(F)c(CO)c3F)cn12` [Compound 19, {3-[2-(3-chlorophenyl)-3-methylimidazo[1,2-α]pyridin-6-yl]-2,6-difluorophenyl}methanol] displayed an EC50 at mouse Nurr1 receptor of 1.7 nM.

A word on the melting point: it is the temperature, or range, at which the solid turns liquid. The EC50 is the midpoint of the concentration-response curve.
